Measured values from article PMC12394658, “Discovery of Zharp1-163 as a dual inhibitor of ferroptosis and necroptosis for the treatment of inflammatory disorders and kidney injury” (Cell Death Discovery, 2025).

How the values were obtained:
Assay in all cases: biochemical
Parameters in all cases: Kinase selectivity panel of 81 human kinases, ADP-Glo or HTRF, per cent inhibition at 1 uM
[1] = biological target: T1, DCAMKL2 (Homo sapiens, UniProt Q8N568)
T1 construct: gene DCLK2
Description: (§1) We next sought to determine the binding affinity of Zharp1-163 for RIPK1 or RIPK3 via a binding assay (Fig. 4A). […] Further, we evaluated the selectivity of Zharp1-163 against a panel of 81 kinases (at 1000 nM). […] To elucidate the binding interactions between Zharp1-163 and RIPK1 kinase, we conducted molecular docking studies using the RIPK1 crystal structure (PDB ID: 4NEU). The predicted binding conformations and interaction patterns between Zharp1-163 and the RIPK1 kinase domain are presented in Fig. 4D, E. Like the cocrystallized ligand in the 4NEU crystal complex, Zharp1-163 was predicted to act as a typical type II kinase inhibitor, interacting with the DLG (Asp156-Leu157-Gly158)-out conformation of RIPK1 (Fig. 4D, E). The 2-aminoimidazo [1,2-a] pyridine moiety of Zharp1-163 formed hydrogen bonds with Met95 in the hinge region. Furthermore, the carboxylate group of Zharp1-163 established hydrogen bonds with Asp156 in the DLG-out region. Additionally, the saturated ring of Zharp1-163 was deeply embedded within the hydrophobic allosteric pocket formed by the residues Met66, Met67, Leu70, Val76, Leu129, and Leu159, which is created by the DLG-out conformation in RIPK1 (Fig. 4D, E).  Fig. 4 Zharp1-163 is a selective inhibitor of RIPK1 kinase activity. A Binding affinity curve of Zharp1-163 with RIPK1 and RIPK3. B In an in vitro kinase activity assay, recombinant RIPK1 was incubated with Zharp1-163, after which RIPK1 kinase activity was determined by measuring ATP levels via a luciferase reporter assay system. […] Kinases are marked with dots, where the color of each kinase indicates the level of inhibition achieved by Zharp1-163. D Predicted binding conformation of Zharp1-163. E Schematic representation of the interaction patterns between Zharp1-163 and the key residues in the binding pocket of the RIPK1 kinase. […] NIH3T3-RIPK3 cells were pretreated with the indicated concentrations of Zharp1-163 for 2 h and then treated with AP20187 (100 nM) for 24 h. Cell viability was determined by measuring ATP levels. […] HeLa-MLKL (1–190) cells were pretreated with the indicated concentrations of Zharp1-163 for 2 h and subsequently treated with AP20187 (100 nM) for 24 h. Cell viability was determined by measuring ATP levels. H Viability of IFNβ-primed MEFs at 18 h after stimulation with poly(I:C) plus z-VAD and treatment with Zharp1-163 (10 μM). I Effects of different concentrations of Zharp1-163 on WT or RIPK1 KO HT-29 cells. Cell viability was determined by measuring ATP levels. The data are presented as the mean ± SD of triplicate samples.

[2] = biological target: T2, IKKα (Homo sapiens, UniProt O15111)
T2 construct: gene CHUK
Description: as §1

[3] = biological target: IRAK1 (Homo sapiens, UniProt P51617)
Sequence of IRAK1 (P51617 whole entry): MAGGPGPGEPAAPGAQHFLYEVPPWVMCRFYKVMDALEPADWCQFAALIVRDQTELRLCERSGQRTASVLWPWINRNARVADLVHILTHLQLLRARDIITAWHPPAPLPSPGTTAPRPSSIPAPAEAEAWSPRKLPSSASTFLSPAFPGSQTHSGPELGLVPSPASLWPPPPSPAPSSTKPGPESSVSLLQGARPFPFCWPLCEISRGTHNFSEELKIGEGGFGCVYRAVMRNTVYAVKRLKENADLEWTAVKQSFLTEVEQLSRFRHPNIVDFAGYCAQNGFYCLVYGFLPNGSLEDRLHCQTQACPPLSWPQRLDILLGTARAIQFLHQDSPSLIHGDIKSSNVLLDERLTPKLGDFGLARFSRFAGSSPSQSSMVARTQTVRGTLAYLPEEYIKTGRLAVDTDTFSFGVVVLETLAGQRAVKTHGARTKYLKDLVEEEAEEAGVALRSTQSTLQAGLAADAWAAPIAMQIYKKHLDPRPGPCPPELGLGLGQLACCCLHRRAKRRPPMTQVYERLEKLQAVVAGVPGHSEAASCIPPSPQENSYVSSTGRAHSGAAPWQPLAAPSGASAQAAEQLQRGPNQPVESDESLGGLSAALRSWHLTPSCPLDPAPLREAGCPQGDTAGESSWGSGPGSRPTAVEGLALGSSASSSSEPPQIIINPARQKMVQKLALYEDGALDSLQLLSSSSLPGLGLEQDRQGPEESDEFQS
Description: as §1

[4] = biological target: T3, PKCα (Homo sapiens, UniProt P17252)
T3 construct: gene PRKCA
Description: as §1

[5] = biological target: JAK3 (Homo sapiens, UniProt P52333)
Description: as §1

[6] = biological target: GAK (Homo sapiens, UniProt O14976)
Description: as §1

[7] = biological target: MAP3K19 (Homo sapiens, UniProt Q56UN5)
Sequence of MAP3K19 (Q56UN5 whole entry): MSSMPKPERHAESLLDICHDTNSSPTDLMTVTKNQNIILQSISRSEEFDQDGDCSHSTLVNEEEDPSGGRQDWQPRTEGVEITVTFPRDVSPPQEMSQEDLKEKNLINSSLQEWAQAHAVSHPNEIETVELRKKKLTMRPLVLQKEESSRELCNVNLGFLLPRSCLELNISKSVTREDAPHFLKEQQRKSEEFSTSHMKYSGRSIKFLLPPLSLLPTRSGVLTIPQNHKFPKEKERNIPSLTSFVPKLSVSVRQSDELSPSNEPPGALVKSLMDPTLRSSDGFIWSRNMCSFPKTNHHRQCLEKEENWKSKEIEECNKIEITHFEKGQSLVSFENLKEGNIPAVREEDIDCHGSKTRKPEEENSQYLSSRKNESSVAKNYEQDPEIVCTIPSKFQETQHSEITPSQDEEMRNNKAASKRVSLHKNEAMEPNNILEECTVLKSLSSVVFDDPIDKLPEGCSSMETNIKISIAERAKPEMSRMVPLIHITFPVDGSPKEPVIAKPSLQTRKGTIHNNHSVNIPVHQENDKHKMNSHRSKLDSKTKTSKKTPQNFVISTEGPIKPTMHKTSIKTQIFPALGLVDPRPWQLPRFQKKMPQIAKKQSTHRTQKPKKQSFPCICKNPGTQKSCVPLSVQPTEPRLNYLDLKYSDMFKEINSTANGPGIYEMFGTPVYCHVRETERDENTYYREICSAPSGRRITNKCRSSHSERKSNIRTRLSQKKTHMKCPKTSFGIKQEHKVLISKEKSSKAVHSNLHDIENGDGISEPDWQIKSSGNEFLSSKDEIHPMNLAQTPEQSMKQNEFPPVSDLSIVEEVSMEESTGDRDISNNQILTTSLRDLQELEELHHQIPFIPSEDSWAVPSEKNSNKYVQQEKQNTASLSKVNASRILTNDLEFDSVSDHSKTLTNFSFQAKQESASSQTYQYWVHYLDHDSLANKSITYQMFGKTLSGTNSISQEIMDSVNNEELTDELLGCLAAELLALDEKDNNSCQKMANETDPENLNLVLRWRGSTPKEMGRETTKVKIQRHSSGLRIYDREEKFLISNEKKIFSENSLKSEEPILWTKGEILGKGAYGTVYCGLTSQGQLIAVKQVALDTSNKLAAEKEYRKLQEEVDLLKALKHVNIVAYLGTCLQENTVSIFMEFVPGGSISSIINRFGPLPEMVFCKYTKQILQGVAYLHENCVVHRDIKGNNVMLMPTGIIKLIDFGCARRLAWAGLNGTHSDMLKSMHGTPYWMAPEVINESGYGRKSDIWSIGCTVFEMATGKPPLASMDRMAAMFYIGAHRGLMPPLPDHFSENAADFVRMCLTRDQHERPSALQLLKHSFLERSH
Description: as §1

[8] = biological target: PAK2 (Homo sapiens, UniProt Q13177)
Sequence of PAK2 (Q13177 whole entry): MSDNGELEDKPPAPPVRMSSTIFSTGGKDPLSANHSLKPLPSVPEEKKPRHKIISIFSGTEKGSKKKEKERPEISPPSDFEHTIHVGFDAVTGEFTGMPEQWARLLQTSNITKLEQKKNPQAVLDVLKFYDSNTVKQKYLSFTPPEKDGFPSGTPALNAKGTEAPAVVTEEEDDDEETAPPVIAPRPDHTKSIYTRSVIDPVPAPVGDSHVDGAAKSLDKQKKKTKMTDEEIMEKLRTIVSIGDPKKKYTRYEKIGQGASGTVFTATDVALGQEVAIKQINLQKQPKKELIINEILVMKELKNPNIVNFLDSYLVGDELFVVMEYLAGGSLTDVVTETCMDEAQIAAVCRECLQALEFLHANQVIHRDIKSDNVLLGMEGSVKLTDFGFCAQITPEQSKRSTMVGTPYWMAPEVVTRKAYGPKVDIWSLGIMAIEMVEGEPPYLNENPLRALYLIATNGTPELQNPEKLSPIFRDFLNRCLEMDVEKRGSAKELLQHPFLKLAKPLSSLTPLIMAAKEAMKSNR
Description: as §1

[9] = biological target: T4, Erk7 (Homo sapiens, UniProt Q8TD08)
T4 construct: gene MAPK15
Description: as §1

[10] = biological target: T5, TSSK1 (Homo sapiens, UniProt Q9BXA7)
T5 construct: gene TSSK1B
T5 sequence (Q9BXA7 whole entry): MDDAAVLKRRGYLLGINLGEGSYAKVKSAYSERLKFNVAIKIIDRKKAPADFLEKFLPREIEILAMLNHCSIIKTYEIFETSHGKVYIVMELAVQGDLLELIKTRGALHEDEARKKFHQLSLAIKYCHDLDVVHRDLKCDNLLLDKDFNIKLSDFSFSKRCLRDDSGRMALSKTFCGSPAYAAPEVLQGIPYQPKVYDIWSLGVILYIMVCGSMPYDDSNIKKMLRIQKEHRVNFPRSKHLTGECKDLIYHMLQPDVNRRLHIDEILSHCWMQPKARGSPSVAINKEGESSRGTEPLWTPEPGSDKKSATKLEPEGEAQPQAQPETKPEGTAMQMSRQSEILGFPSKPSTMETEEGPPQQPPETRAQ
Description: as §1

[11] = biological target: AXL (Homo sapiens, UniProt P30530)
Sequence of AXL (P30530 whole entry): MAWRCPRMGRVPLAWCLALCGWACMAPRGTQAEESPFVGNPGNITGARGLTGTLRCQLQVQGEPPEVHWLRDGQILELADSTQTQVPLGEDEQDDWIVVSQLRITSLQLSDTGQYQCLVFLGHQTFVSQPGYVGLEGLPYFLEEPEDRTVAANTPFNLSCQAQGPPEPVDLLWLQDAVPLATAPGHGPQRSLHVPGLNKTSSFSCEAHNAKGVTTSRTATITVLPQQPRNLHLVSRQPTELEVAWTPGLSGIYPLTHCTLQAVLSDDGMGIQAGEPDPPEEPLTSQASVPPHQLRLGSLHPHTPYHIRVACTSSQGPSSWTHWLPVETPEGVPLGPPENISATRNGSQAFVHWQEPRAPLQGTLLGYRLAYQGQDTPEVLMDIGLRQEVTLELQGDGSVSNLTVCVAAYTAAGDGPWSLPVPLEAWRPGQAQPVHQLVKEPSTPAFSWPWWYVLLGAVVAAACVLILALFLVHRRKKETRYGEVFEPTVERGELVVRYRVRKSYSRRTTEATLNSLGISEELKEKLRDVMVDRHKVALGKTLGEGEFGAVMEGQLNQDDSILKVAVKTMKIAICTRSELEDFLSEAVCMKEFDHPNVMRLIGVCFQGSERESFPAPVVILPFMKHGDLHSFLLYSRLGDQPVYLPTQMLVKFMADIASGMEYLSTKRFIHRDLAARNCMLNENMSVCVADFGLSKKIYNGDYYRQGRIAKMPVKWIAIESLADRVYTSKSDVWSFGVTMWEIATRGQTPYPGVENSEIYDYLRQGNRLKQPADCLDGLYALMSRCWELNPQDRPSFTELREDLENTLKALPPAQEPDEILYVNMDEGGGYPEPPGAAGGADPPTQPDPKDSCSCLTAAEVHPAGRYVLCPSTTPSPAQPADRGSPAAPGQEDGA
Description: as §1

[12] = biological target: MET (Homo sapiens, UniProt P08581)
Description: as §1

[13] = biological target: T6, CK2α1/β (Homo sapiens, UniProt P68400)
T6 construct: gene CSNK2A1
Description: as §1

[14] = biological target: T7, AurB (Homo sapiens, UniProt Q96GD4)
T7 construct: gene AURKB
T7 sequence (Q96GD4 whole entry): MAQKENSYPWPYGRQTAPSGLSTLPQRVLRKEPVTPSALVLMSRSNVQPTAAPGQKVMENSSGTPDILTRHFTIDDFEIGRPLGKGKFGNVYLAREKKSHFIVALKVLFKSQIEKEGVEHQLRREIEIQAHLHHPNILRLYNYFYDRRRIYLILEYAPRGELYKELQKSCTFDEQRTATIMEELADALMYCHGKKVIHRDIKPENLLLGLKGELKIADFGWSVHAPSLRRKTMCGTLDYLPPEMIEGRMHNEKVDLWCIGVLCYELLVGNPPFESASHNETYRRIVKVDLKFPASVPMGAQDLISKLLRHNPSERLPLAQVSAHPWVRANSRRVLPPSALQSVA
Description: as §1

inhibition at 1 µM ([1]; replicate Data1): 5.19%
inhibition at 1 µM ([1]; replicate Data2): 1.92%
inhibition at 1 µM ([2]; replicate Data1): 0.19%
inhibition at 1 µM ([2]; replicate Data2): 7.24%
inhibition at 1 µM ([3]; replicate Data1): 1.3%
inhibition at 1 µM ([3]; replicate Data2): -3.6%
inhibition at 1 µM ([4]; replicate Data1): -5.43%
inhibition at 1 µM ([4]; replicate Data2): -7.15%
inhibition at 1 µM ([5]; replicate Data1): -1.37%
inhibition at 1 µM ([5]; replicate Data2): 7.33%
inhibition at 1 µM ([6]; replicate Data1): 18.2%
inhibition at 1 µM ([6]; replicate Data2): 19.7%
inhibition at 1 µM ([7]; replicate Data1): -4.19%
inhibition at 1 µM ([7]; replicate Data2): 10.2%
inhibition at 1 µM ([8]; replicate Data1): -3.2%
inhibition at 1 µM ([8]; replicate Data2): -2.35%
inhibition at 1 µM ([10]; replicate Data1): -0.22%
inhibition at 1 µM ([10]; replicate Data2): 2.05%
inhibition at 1 µM ([11]; replicate Data1): 10.9%
inhibition at 1 µM ([11]; replicate Data2): 1.24%
inhibition at 1 µM ([12]; replicate Data1): 18.3%
inhibition at 1 µM ([12]; replicate Data2): 3.81%
inhibition at 1 µM ([13]; replicate Data1): -12.2%
inhibition at 1 µM ([13]; replicate Data2): 5.04%
inhibition at 1 µM ([14]; replicate Data1): 8.89%
inhibition at 1 µM ([14]; replicate Data2): 13.4%
SMILES: Nc1cn2cc(-c3cnc4c(c3)N(C(=O)OC3CCCCC3)CCO4)ccc2n1 [Zharp1-163]
inhibition at 1 µM ([9]; replicate Data1): 5.82%
inhibition at 1 µM ([9]; replicate Data2): 0.29%
